Experimental data: US10206937B2, “Boronic acid derivatives and therapeutic uses thereof” (Qpex Biopharma, Inc., priority 2014, dated 2019)

Tested on: strains of Enterobacteriaceae producing various carbapenemases (class A, D and B; 104 strains)
Assay: Antibiotics potentiation by Compound 27 (MIC; meropenem, doripenem, ertapenem, cefepime)
Format: cell-based
Details: + 27 = with Compound 27 at fixed 4 μg/ml

C[C@@H](O)[C@H]1C(=O)N2C(C(=O)O)=C(S[C@@H]3CN[C@H](CNS(N)(=O)=O)C3)[C@H](C)[C@H]12 [D]
MIC (strain CF1012 Citrobacter freundii (KPC-2)): Y (MIC of 1 μg/mL to 10 μg/mL)
MIC (strain CF1021 Citrobacter freundii (CMY-type; VIM-1)): Y (MIC of 1 μg/mL to 10 μg/mL)
MIC (strain CF1022 Citrobacter freundii (SHV-12(2be), TEM-OSBL(2b); IMP-8)): Y (MIC of 1 μg/mL to 10 μg/mL)
MIC (strain CF1023 Citrobacter freundii (SHV-12(2be), TEM-OSBL(2b); CTX-M-3; CMY-34; NDM-1)): Z (MIC of greater than 10 μg/mL)
MIC (strain CL1080 Enterobacter cloacae (IMP-1)): X (MIC of less than 1 μg/mL)
MIC (strain EA1019 Enterobacter aerogenes (SHV-5, VIM-1)): Z (MIC of greater than 10 μg/mL)
MIC (strain EC1007 Escherichia coli (KPC-3)): X (MIC of less than 1 μg/mL)
MIC (strain EC1061 Escherichia coli (NDM-1, CMY-6)): Z (MIC of greater than 10 μg/mL)
MIC (strain EC1062 Escherichia coli (OXA-48, CTX-M-15)): X (MIC of less than 1 μg/mL)
MIC (strain EC1064 Escherichia coli (NDM-1, CMY-6, CTX-M-15)): Z (MIC of greater than 10 μg/mL)
MIC (strain EC1065 Escherichia coli (IMP-1)): Y (MIC of 1 μg/mL to 10 μg/mL)
MIC (strain EC1068 Escherichia coli (VIM-1)): Z (MIC of greater than 10 μg/mL)
MIC (strain EC1069 Escherichia coli (CTX-M-27; NDM-1)): Z (MIC of greater than 10 μg/mL)
MIC (strain EC1070 Escherichia coli (TEM-OSBL(2b); CMY-42; NDM-5)): Z (MIC of greater than 10 μg/mL)
MIC (strain EC1072 Escherichia coli (CTX-M-3; NDM-1)): Z (MIC of greater than 10 μg/mL)
MIC (strain ECL1004 Enterobacter cloacae (NMC-A)): Y (MIC of 1 μg/mL to 10 μg/mL)
MIC (strain ECL1026 Enterobacter cloacae (KPC-2, TEM-1)): Y (MIC of 1 μg/mL to 10 μg/mL)
MIC (strain ECL1036 Enterobacter cloacae (KPC-3, TEM-1)): Y (MIC of 1 μg/mL to 10 μg/mL)
MIC (strain ECL1045 Enterobacter cloacae (VIM-1)): Y (MIC of 1 μg/mL to 10 μg/mL)
MIC (strain ECL1055 Enterobacter cloacae (KPC-3, TEM)): Y (MIC of 1 μg/mL to 10 μg/mL)
MIC (strain ECL1057 Enterobacter cloacae (NDM-1, TEM-1, CTX-M-15)): Z (MIC of greater than 10 μg/mL)
MIC (strain ECL1058 Enterobacter cloacae (KPC-3, SHV-11, TEM-1)): Z (MIC of greater than 10 μg/mL)
MIC (strain ECL1059 Enterobacter cloacae (KPC-3, SHV-12, TEM-1)): Y (MIC of 1 μg/mL to 10 μg/mL)
MIC (strain ECL1061 Enterobacter cloacae (KPC-3, Hyper AmpC expression)): Y (MIC of 1 μg/mL to 10 μg/mL)
MIC (strain ECL1082 Enterobacter cloacae (VIM-1)): Z (MIC of greater than 10 μg/mL)
MIC (strain ECL1084 Enterobacter cloacae (CTX-M-15; ACT-16; NDM-1)): Z (MIC of greater than 10 μg/mL)
MIC (strain ECL1085 Enterobacter cloacae (SHV-31(2be), TEM-1(2b); CTX-M-15; NDM-1)): Z (MIC of greater than 10 μg/mL)
MIC (strain ECL1086 Enterobacter cloacae (VIM-31, OXA-48(c))): Y (MIC of 1 μg/mL to 10 μg/mL)
MIC (strain ECL1087 Enterobacter cloacae (VIM-1)): Z (MIC of greater than 10 μg/mL)
MIC (strain ECL1088 Enterobacter cloacae (TEM-1(2b); CTX-M-14; ACT-type; VIM-1)): Z (MIC of greater than 10 μg/mL)
MIC (strain ECL1089 Enterobacter cloacae (ACT-type; IMP-1)): Z (MIC of greater than 10 μg/mL)
MIC (strain ECL1090 Enterobacter cloacae (TEM-1(2b); CTX-M-22; ACT-type; IMP-8)): Y (MIC of 1 μg/mL to 10 μg/mL)
MIC (strain ECL1091 Enterobacter cloacae (VIM-1)): Z (MIC of greater than 10 μg/mL)
MIC (strain ECL1092 Enterobacter cloacae (TEM-OSBL(2b); ACT-32; VIM-1)): Y (MIC of 1 μg/mL to 10 μg/mL)
MIC (strain ECL1093 Enterobacter cloacae (TEM-OSBL(2b); ACT-32; VIM-1)): Y (MIC of 1 μg/mL to 10 μg/mL)
MIC (strain ECL1094 Enterobacter cloacae (VIM-1)): Z (MIC of greater than 10 μg/mL)
MIC (strain ECL1096 Enterobacter cloacae (CMY-4, VIM-4, OXA-48(c))): Y (MIC of 1 μg/mL to 10 μg/mL)
MIC (strain ECL1097 Enterobacter cloacae (SHV-31(2be), TEM-OSBL(2b); CTX-M-15; ACT-31; NDM-1)): Z (MIC of greater than 10 μg/mL)
MIC (strain ECL1098 Enterobacter cloacae (TEM-OSBL(2b); DHA-1; ACT-16; NDM-1)): Z (MIC of greater than 10 μg/mL)
MIC (strain KP1001 Klebsiella pneumoniae (KPC TEM SHV)): Z (MIC of greater than 10 μg/mL)
MIC (strain KP1002 Klebsiella pneumoniae (KPC TEM SHV)): Y (MIC of 1 μg/mL to 10 μg/mL)
MIC (strain KP1003 Klebsiella pneumoniae (KPC TEM SHV)): Y (MIC of 1 μg/mL to 10 μg/mL)
MIC (strain KP1004 Klebsiella pneumoniae (KPC-2, TEM-1, SHV-11)): Y (MIC of 1 μg/mL to 10 μg/mL)
MIC (strain KP1008 Klebsiella pneumoniae (KPC-2)): X (MIC of less than 1 μg/mL)
MIC (strain KP1014 Klebsiella pneumoniae (VIM-1, TEM, SHV)): Z (MIC of greater than 10 μg/mL)
MIC (strain KP1054 Klebsiella pneumoniae (VIM-1, SHV-11)): Z (MIC of greater than 10 μg/mL)
MIC (strain KP1059 Klebsiella pneumoniae (VIM-1, SHV-11)): Z (MIC of greater than 10 μg/mL)
MIC (strain KP1061 Klebsiella pneumoniae (KPC-3, SHV-11, TEM-1)): Z (MIC of greater than 10 μg/mL)
MIC (strain KP1064 Klebsiella pneumoniae (KPC-2, SHV-11, TEM-1)): Z (MIC of greater than 10 μg/mL)
MIC (strain KP1065 Klebsiella pneumoniae (VIM-1, SHV-11)): Y (MIC of 1 μg/mL to 10 μg/mL)
MIC (strain KP1070 Klebsiella pneumoniae (KPC-2, SHV-11, TEM-1)): Y (MIC of 1 μg/mL to 10 μg/mL)
MIC (strain KP1074 Klebsiella pneumoniae (KPC-3, SHV-11, TEM)): Z (MIC of greater than 10 μg/mL)
